Values quoted from earlier work as cited in patent US9878049B2, “High drug loading system to co-deliver anticancer drugs and nucleic acids for cancer therapy” (THE UNIVERSITY OF AKRON, priority 2013, dated 2018).

Settings: general statement, no test described

Q: Which water solubility does the source give for `CC[C@@]1(O)C(=O)OCc2c1cc1n(c2=O)Cc2cc3ccccc3nc2-1` [CPT, Camptothecin] here?
A: low water solubility
